Legend:
[1] = tested on: Wistar Kyoto rats; test: Test 2: NMDA-channel blocker induced head swaying and circling; assay type: in vivo; settings: rat, 10 mg/kg s.c., 0-30 min
Experimental: Test 2: NMDA-Channel Blocker Induced Head Swaying and Circling:
Adult male Wistar Kyoto rats (340-380 g; Iffa Credo, Lyon, France) are used. The animals are randomized to the following treatment groups (n=10 per group): the compound (dosed 0, 3 or 10 mg/kg) followed by phencyclidine (PCP; an NMDA channel blocker, dosed 0 or 10 mg/kg). Compound (at t=−15 min) and PCP (at t=0 min) are administered s.c. in a volume of 1 ml/kg. Video-recordings of the animals behaviour over the period 0-30 min following PCP are scored by an observer who is unaware about the animals pretreatment. Head-swaying (rocking the head repeatedly by at least 2 cm left and right) and circling (turning around by using the forepaws, whereas the hindpaws remain more or less on the original position) are scored as present (1) or absent (0), every five minutes for the duruation of 1 minute. The scores for individual animals is summed and group scores used for statistical analysis (t-test with Bonferroni correction).

[2] = tested on: Wistar Kyoto rats; test: Test 1: NMDA-antagonist induced locomotion; assay type: in vivo; settings: rat
Experimental: Test 1: NMDA-Antagonist Induced Locomotion:
Male Wistar Kyoto rats (Iffa Crédo, Lyon, France) weighing between 250 and 310 g are used. In principle 4 treatment groups are formed: 1) the compound (doses 1, 3 or 10 mg/kg) followed by the competitive NMDA receptor antagonist (S)-2-amino-3-(2′-chloro-5-phosphonomethyl-biphenyl-3-yl)-propionic acid, hereinafter SDZ 220-581 (10 mg/kg), 2) solvent-pretreatment followed by SDZ 220-581 (10 mg/kg), 3) solvent followed by solvent, 4) the compound (1, 3, 10 mg/kg) followed by solvent. Rats are randomly allocated to these pretreatment groups (n=10/dose group). Drugs are administered subcutaneous (s.c.), 15 min prior to SDZ 220-581. Immediately after the animals received SDZ 220-581, they are placed into the activity monitor for a period of 60 min. Locomotor activity is analysed over the initial 30 minutes.
Locomotion is recorded with a videotracking system (VideoMot2, TSE Technical and Scientific Equipment GmbH, Bad Hombourg, Germany), using a closed circuit digital videocamera (WV-BP.330/GE, Panasonic, Osaka, Japan). The video-signal from the camera is digitized and used for data analysis. Animals are on a normal 12/12 h day-night cycle, with light on at 06:00H. Experiments are performed in a dimly lit room between 07:00 H and 15:00H. […] The camera is placed such, that four animals (one per arena) can be recorded simultaneously.

[3] = tested on: neurons; settings: superfusion, in vitro
Text: The activity in tinnitus of the compounds is indicated in standard tests, e.g. in the salicylate-induced tinnitus model.

[4] = tested on: auditory neurons; test: extracellular electrophysiological recording of auditory neuron firing rate
[5] = tested on: Wistar rats; test: model of neuropathic pain in the rat (partial sciatic nerve ligation, mechanical hyperalgesia); assay type: in vivo; settings: 10 mg/kg p.o., after 3 hours
Text: The activity of the compounds in the treatment of neuropathic pain is evidenced, for example, in the following model of neuropathic pain in the rat:
Wistar rats are anaesthetised with enflurane and a small incision is made mid-way up one thigh to expose the sciatic nerve. The nerve is cleared of connective tissue and a 7-0 silk suture is inserted into the nerve using a ⅜ curved reverse-cutting min-needle, and tightly ligated so that the dorsal ⅓ to ½ of the nerve thickness is held within the ligature. The muscle and skin are closed with sutures and clips and the wound dusted with antibiotic powder. […] Mechanical hyperalgesia is assessed by measuring paw withdrawal thresholds on both the ipsilateral (ligated) and contralateral (unligated) hindpaw to an increasing pressure stimulus applied to the paw using an analgesymeter (Ugo-Basile) with a wedge-shaped probe (area 1.75 mm^2) and a cut-off threshold of 250 g. […] Reversal of established hyperalgesia by administered compounds is measured 12-14 days following surgery, using 6 animals per treatment group. Paw withdrawal thresholds are measured prior to and then up to 6 hours following drug or vehicle administration. Statistical analysis is carried out on withdrawal threshold readings using ANOVA followed by Tukey's HSD test comparing drug treated and time-matched vehicle treated animals.

[6] = tested on: patients with diabetic neuropathy; test: clinical study of chronic pain in patients with diabetic neuropathy; assay type: in vivo, human; settings: 2400 mg/day, Maintenance and Follow-up Periods, statistically significant
Experimental: The activity of the compounds of formula I in the treatment of neuropathic pain can be confirmed in clinical trials, for example in the following study aimed at evaluating the efficacy of a compound in treating chronic pain in patients with diabetic neuropathy:
Patients are randomized to receive 2400 mg/day of the compound or placebo in a 1:1 ratio.
The study consists of a Pre-randomization Phase (1 week) and a Double-blind Phase (5 weeks). The double-blind Phase consists of three periods: a one week Titration Period, a three-week Maintenance Period and a one-week Follow-up Period.
During the 1-week Pre-randomization Phase, the eligibility of the patients is evaluated. Patents meeting all inclusion/exclusion criteria are randomized to either the compound or placebo in the Double-blind Phase. […]
The SF-MPQ total pain score at the end of the Maintenance Period is analyzed using an analysis of covariance model adjusting for the effect of treatment on post-treatment scores by using the baseline SF-MPQ total pain score as a covariate. Average weekly pain severity is analyzed using an analysis of covariance model with repeated measures using the treatment week and the mean pain severity rating during the Pre-randomization Phase as covariates. Usage of rescue medication during the Double-blind Phase is analyzed using the Cochran-Mantel-Haenszel test controlling for center. […]

c1ccc(C2(N3CCCCC3)CCCCC2)cc1 [PCP, phencyclidine]
head-swaying and circling induced [1]: weak head-swaying and circling

N[C@@H](Cc1cc(CP(=O)(O)O)cc(-c2ccccc2Cl)c1)C(=O)O [SDZ 220-581, (S)-2-amino-3-(2′-chloro-5-phosphonomethyl-biphenyl-3-yl)-propionic acid]
distance walked during 30 min ([2]; 10 mg/kg s.c., control animals approximately 8-10 m): approximately 30 m

O=C(O)c1ccccc1O [salicylate]
excitability of the recorded neurons [3]: increases the excitability | firing rate of auditory neurons [4]: increase in the firing rate

O=c1[nH]c2cc([N+](=O)[O-])cc(CNCP(=O)(O)O)c2[nH]c1=O [{[(7-nitro-2,3-dioxo-1,2,3,4-tetrahydro-quinoxalin-5-ylmethyl)-amino]-methyl}-phosphonic acid]
maximal reversal of neuropathic mechanical hyperalgesia [5]: 35% | pain severity ratings relative to placebo [6]: decrease pain severity ratings relative to placebo | effect of the NMDA-antagonist SDZ 220-581 on locomotion after pretreatment ([2]; compound 10 mg/kg s.c., SDZ 220-581 10 mg/kg s.c.): almost normalized

C=C[C@H]1C[N@@]2CC[C@H]1C[C@H]2[C@H](O)c1ccnc2ccc(OC)cc12 [quinine]
firing rate of auditory neurons [4]: increase in the firing rate

— patent publication US20060293282A1, “Substituted aminoalkanephosphonic acids” (priority 2002, published 2006)
